From patent US12440496B2, “Natriuretic peptide receptor a agonists useful for the treatment of cardiometabolic diseases, kidney disease and diabetes” (Merck Sharp & Dohme LLC, priority 2019, dated 2025)

Biological target: T1, hNPRA (Homo sapiens, UniProt P16066)
T1 construct: expressed in transfected cells
T1 sequence (P16066 33-1061): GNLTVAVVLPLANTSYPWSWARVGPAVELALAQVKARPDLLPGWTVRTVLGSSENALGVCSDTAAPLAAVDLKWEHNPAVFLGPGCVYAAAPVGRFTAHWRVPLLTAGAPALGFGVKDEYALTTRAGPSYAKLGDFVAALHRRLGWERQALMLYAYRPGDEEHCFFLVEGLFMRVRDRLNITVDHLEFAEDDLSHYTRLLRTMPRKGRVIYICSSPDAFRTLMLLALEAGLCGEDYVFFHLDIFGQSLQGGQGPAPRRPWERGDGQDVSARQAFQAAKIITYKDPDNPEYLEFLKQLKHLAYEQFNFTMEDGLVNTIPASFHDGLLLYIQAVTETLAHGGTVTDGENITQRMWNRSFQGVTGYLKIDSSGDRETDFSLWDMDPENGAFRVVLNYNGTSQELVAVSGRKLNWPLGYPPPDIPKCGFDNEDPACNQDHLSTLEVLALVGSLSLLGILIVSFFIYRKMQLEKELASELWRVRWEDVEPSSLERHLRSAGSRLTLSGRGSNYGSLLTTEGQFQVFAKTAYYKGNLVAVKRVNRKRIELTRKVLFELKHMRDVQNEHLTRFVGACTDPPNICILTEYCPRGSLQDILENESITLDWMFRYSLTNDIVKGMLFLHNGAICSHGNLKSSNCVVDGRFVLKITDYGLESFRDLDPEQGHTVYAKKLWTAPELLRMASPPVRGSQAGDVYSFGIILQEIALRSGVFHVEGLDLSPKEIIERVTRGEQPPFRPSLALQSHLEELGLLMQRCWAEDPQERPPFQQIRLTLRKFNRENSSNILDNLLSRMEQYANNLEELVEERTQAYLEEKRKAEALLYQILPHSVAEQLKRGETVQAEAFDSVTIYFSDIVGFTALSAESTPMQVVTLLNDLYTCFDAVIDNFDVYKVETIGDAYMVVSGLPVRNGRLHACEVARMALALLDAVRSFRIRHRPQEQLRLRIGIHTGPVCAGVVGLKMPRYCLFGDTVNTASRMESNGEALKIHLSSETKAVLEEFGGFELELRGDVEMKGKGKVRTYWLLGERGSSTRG
Experiment: NPRA Functional Cell Assay (cGMP HTRF, NPRA HEK JumpIn stable cells)
Format: cell-based
Settings: cGMP production, 1 hour at 37° C., 10-point dose response
Source text: NPRA Functional Cell Assay
Assay Buffer components HEPES and Opti-MEM® I Reduced-Serum with Glutamine (no phenol red) were from Gibco/Invitrogen (Thermo Fisher Scientific, Waltham, MA USA). 3-Isobutyl-1-methylxanthine (IBMX) and 4-(3-Butoxy-4-methoxybenzyl) imidazolidin-2-one (RO20) were obtained from Sigma-Aldrich (St. Louis, MO, USA). DPBS (Dulbecco's phosphate-buffered saline) without Ca2+ and Mg2+ was purchased from GE Healthcare Bio-Sciences (Pittsburgh, PA, USA). 384 well white Optiplates were from Perkin Elmer (Atlantic Highlands, NJ, USA). Human ANP (Atrial Natriuretic Peptide) (1-28) was purchased from Sigma-Aldrich (Catalog #A1663) and rat ANP (1-28) from Bachem (Torrance, CA, USA) (Catalog #H2100). Human-BNP (Human-Brain Natriuretic Peptide) (1-32 AA) was purchased from American Peptide Company (Sunnyvale, CA, USA) (product No. 14-1-90). cGMP kits were purchased from Cisbio. The assay ready frozen (ARF) Human/rat/dog NPRA HEK JumpIn Stable frozen cells (low passage number 5-11) were prepared in-house.
Test compounds were titrated in DMSO in a 10-point dose response in a separate step followed by a 100-fold dilution into the reaction. Positive response for each assay was determined using 10 nM rat-ANP peptide (rat cells) or 50 nM h-ANP peptide (human and dog cells).
Cells were thawed, washed with DPBS and resuspended in assay buffer (Opti-MEM+Glutamine, phenol red free media, 10 mM HEPES, 100 uM IBMX and 100 uM RO20) that was warmed to 37° C. Cells were then transferred to microplates via a Microplate Combi dispenser at a density of 1500, 400 and 1200 cells/well for human, rat and dog cells respectively, followed by acoustic transfer (Echo) of compound.
(§1) Compounds and cells were incubated at 37° C. with 5% CO2 for 1 hour, after which the cells were lysed and cGMP was captured using a CisBio cGMP HTRF assay kit. The TRF signal was measured with an Envision plate reader (emission set to 615 and 665 nm) after 1 hour incubation at ambient temperature. The TRF signal was converted to [cGMP] through the use of a cGMP calibration curve on each microplate. EC50's were generated from the resulting dose response curves by use of a 4 parameter logistic algorithm.
Assay Buffer components HEPES and Opti-MEM® I Reduced-Serum with Glutamine (no phenol red) were from Gibco/Invitrogen. 3-Isobutyl-1-methylxanthine (IBMX) and 4-(3-Butoxy-4-methoxybenzyl) imidazolidin-2-one (RO20) were obtained from Sigma. DPBS (Dulbecco's phosphate-buffered saline) without Ca2+ and Mg2+ was purchased from GE Healthcare Bio-Sciences (Pittsburgh, PA, USA). 384 well white Optiplates were from Perkin Elmer (Atlantic Highlands, NJ, USA). Human ANP (1-28) was purchased from Sigma (A1663) and rat ANP (1-28) from Bachem (H2100). Human-BNP (1-32 AA) was purchased from American Peptide Company (Sunnyvale, CA, USA) (product No. 14-1-90). cGMP kits were purchased from Cisbio (Bedford, MA, USA). The assay ready frozen (ARF) Human/rat/dog NPRA HEK JumpIn Stable frozen cells (low passage number 5-11) were prepared in-house.
as §1, with “Envision®” for “Envision”, “reader (Perkin Elmer)” for “reader”
hNPRA EC50 (nM) were determined for the compounds of Example 1 through Example 273 and are reported in the Experimental section of this application.

| Compound | EC50 [nM] |
| --- | --- |
| CN1CC[C@H](NC(=O)c2cccc([C@@H](CCN3CCC(O)CC3)NC(=O)c3nc4cc5c(nc4s3)CC[C@H](C(C)(C)C)C5)c2)C1 (racemic) [Example 138, rac-(7S)-7-tert-butyl-N-[rac-(1R)-3-(4-hydroxy-1-piperidyl)-1-[3-[[rac-(3S)-1-methylpyrrolidin-3-yl]carbamoyl]phenyl]propyl]-5,6,7,8-tetrahydrothiazolo[5,4-b]quinoline-2-carboxamide] | 210 |
| CC(C)(C)[C@H]1CCc2nc3sc(C(=O)N[C@H](CCN(CCO)CCO)c4ccc(-c5ccc(=O)[nH]c5)cc4)cc3cc2C1 (racemic) [Example 34, rac-(6S)-6-tert-butyl-N-[rac-(1R)-3-[bis(2-hydroxyethyl)amino]-1-[4-(6-oxo-1H-pyridin-3-yl)phenyl]propyl]-5,6,7,8-tetrahydrothieno[2,3-b]quinoline-2-carboxamide] | 530 |
| O=C(N[C@H](CCN1CCC(O)CC1)c1ccc(-c2cnc(O)c(F)c2)cc1)c1nc2cc3c(nc2s1)CC[C@H](C1(C(F)(F)F)CC1)C3 [Example 235, (S)-N-((R)-1-(4-(5-fluoro-6-oxo-1,6-dihydropyridin-3-yl)phenyl)-3-(4-hydroxypiperidin-1-yl)propyl)-7-(1-(trifluoromethyl)cyclopropyl)-5,6,7,8-tetrahydrothiazolo[5,4-b]quinoline-2-carboxamide] | 560 |
| CC(C)(C)[C@H]1CCc2nc3sc(C(=O)N[C@H](CCN4CCC(O)CC4)c4cccc(C(=O)NCC5CCNC5)c4)nc3cc2C1 (mixture of isomers) [Example 152, rac-(7S)-7-tert-butyl-N-[rac-(1R)-3-(4-hydroxy-1-piperidyl)-1-[3-(pyrrolidin-3-ylmethylcarbamoyl)phenyl]propyl]-5,6,7,8-tetrahydrothiazolo[5,4-b]quinoline-2-carboxamide] | 686 |
| CC(C)(C)[C@H]1CCc2nc3sc(C(=O)N[C@H](CCN[C@H]4COC[C@@H]4O)c4ccc(-c5ccc(=O)[nH]c5)cc4)cc3cc2C1 (racemic) [Example 69, [rac-(3S,4R)-4-hydroxytetrahydrofuran-3-yl]-[rac-(3R)-3-[4-(6-oxo-1H-pyridin-3-yl)phenyl]-3-[[rac-(6S)-6-tert-butyl-5,6,7,8-tetrahydrothieno[2,3-b]quinoline-2-carbonyl]amino]propyl] ammonium;formate] | 1830 |
| CC(C)(C)[C@H]1CCc2nc3sc(C(=O)NC(CCN4CCCC4)c4ccncc4)nc3cc2C1 (stereo partly drawn) [Example 272, (7S)-7-(tert-butyl)-N-(1-(pyridin-4-yl)-3-(pyrrolidin-1-yl)propyl)-5,6,7,8-tetrahydrothiazolo[5,4-b]quinoline-2-carboxamide] | 940 |
| CN(C)CC[C@@H](NC(=O)c1nc2cc3c(nc2s1)CC[C@H](C(C)(C)C)C3)c1cccc(C(N)=O)c1 (racemic) [Example 99, rac-(7S)-7-tert-butyl-N-[rac-(1R)-1-(3-carbamoylphenyl)-3-(dimethylamino)propyl]-5,6,7,8-tetrahydrothiazolo[5,4-b] quinoline-2-carboxamide] | 1830 |

The remaining molecules from weak to strong by EC50, led by results:

| EC50 [nM] | Compound |
| --- | --- |
| 6320 | CC(C)(C)[C@H]1CCc2nc3sc(C(=O)NC(CCN4CCNCC4)c4ccccc4)cc3cc2C1 (stereo partly drawn) [Example 245, (6S)-6-tert-butyl-N-(1-phenyl-3-piperazin-1-ylpropyl)-5,6,7,8-tetrahydrothieno[2,3-b]quinoline-2-carboxamide] |
| 1250 | CC(C)(C)[C@H]1CCc2nc3sc(C(=O)N[C@H](CCN4CCC(O)CC4)c4ccc(-c5nc[nH]c5C#N)cc4)nc3cc2C1 (racemic) [Example 178, rac-(7S)-7-tert-butyl-N-[rac-(1R)-1-[4-(5-cyano-1H-imidazol-4-yl)phenyl]-3-(4-hydroxy-1-piperidyl)propyl]-5,6,7,8-tetrahydrothiazolo[5,4-b]quinoline-2-carboxamide] |
| 929 | CC(C)(C)[C@H]1CCc2nc3sc(C(=O)N[C@H](CCN4CCC(C(=O)O)CC4)c4cccc(C(=O)NC5CCN(C6CC6)C5)c4)nc3cc2C1 (mixture of isomers) [Example 124, 1-[rac-(3R)-3-[3-[(1-cyclopropylpyrrolidin-3-yl)carbamoyl]phenyl]-3-[[rac-(7S)-7-tert-butyl-5,6,7,8-tetrahydrothiazolo [5,4-b]quinoline-2-carbonyl]amino]propyl]piper idin-1-ium-4-carboxylic acid; 2,2,2-trifluoroacetate] |
| 787 | CC(C)(C)[C@H]1CCc2nc3sc(C(=O)N[C@H](CCN4CCC(O)CC4)c4ccc(OCC(N)=O)nc4)nc3cc2C1 (racemic) [Example 193, rac-(7S)-7-tert-butyl-N-[rac-(1R)-1-[6-(2-amino-2-oxo-ethoxy)-3-pyridyl]-3-(4-hydroxy-1-piperidyl)propyl]-5,6,7,8-tetrahydrothiazolo[5,4-b]quinoline-2-carboxamide] |
| 658 | CNCC[C@@H](NC(=O)c1cc2cc3c(nc2s1)CC[C@H](C(C)(C)C)C3)c1ccc(-c2ccc(=O)[nH]c2)cc1 (racemic) [Example 42, rac-(6S)-6-tert-butyl-N-[rac-(1R)-3-(methylamino)-1-[4-(6-oxo-1H-pyridin-3-yl)phenyl]propyl]-5,6,7,8-tetrahydrothieno[2,3-b]quinoline-2-carboxamide] |
| 607 | CC(C)(C)[C@H]1CCc2nc3sc(C(=O)N[C@H](CCN4CCC(O)CC4)c4cccc(C(=O)N5CCC6NCCC65)c4)nc3cc2C1 (mixture of isomers) [Example 146, rac-(7S)-7-tert-butyl-N-[rac-(1R)-1-[3-(2,3,3a,5,6,6a-hexahydro-1H-pyrrolo[3,2-b]pyrrole-4-carbonyl)phenyl]-3-(4-hydroxy-1-piperidyl)propyl]-5,6,7,8-tetrahydrothiazolo[5,4-b]quinoline-2-carboxamide] |
| 126 | CN1CC[C@@H](NC(=O)c2cccc([C@@H](CCN3CCC(O)CC3)NC(=O)c3nc4cc5c(nc4s3)CC[C@H](C(C)(C)C)C5)c2)C1 (racemic) [Example 134, rac-(7S)-7-tert-butyl-N-[rac-(1R)-3-(4-hydroxy-1-piperidyl)-1-[3-[[rac-(3R)-1-methylpyrrolidin-3-yl]carbamoyl]phenyl]propyl]-5,6,7,8-tetrahydrothiazolo[5,4-b]quinoline-2-carboxamide] |
